Reference: patent US11441168B2, “Method for assaying the activity of spermidine/spermine N1-acetyltransferase” (BioMark Technologies Inc., priority 2011, dated 2022)

Tests used:
rat hepatocytes = conditions: for Substrate concentration resulting in extensive cytotoxicity / Substrate concentration that resulted in extensive cytotoxicity: rat, 24 h
Procedure: (§1) Refer to the table below for the testing concentrations. Metabolites collected from the incubation reactions were measured by LC/MS/MS analysis.
(§2) Following cell attachment, the culture medium was aspirated from each well, and replaced with pre-warmed InVitroGRO™ HI Rat Medium (added with Torpedo antibiotic mix in the confirmatory experiment) and the substrate solution at the appropriate concentration. The treated cells were returned to incubation for 24 hours. Upon completion of incubation, the medium from each well was collected into 1.7-mL vials containing ice-cold methanol and stored at nominal −80° C. (−72° C. to −88° C.) prior to LC/MS/MS analysis. Hepatocytes remaining in the wells were subjected to MTT assay to evaluate the cytotoxic potential of the substrates at the testing concentrations.
Upon collection of the reaction medium, an aliquot of 0.5 mg/mL MTT in KHB was added immediately to the remaining hepatocytes in each well and then incubated for approximately 30 minutes. Following incubation, the medium was replaced with dimethyl sulfoxide (DMSO) to dissolve the formazan. An aliquot from each well was measured for absorbance at 540 nm on a 96-well flat bottom plate with a microplate reader and DMSO for background absorbance correction.
The cytotoxic potential of the substrates to rat hepatocytes was evaluated by MTT cytotoxicity assays. The assays were performed in both the pilot and the confirmatory experiments.

[1] = biological target: spermidine/spermine N1-acetyltransferase (SSAT) (Rattus norvegicus, UniProt Q6P9U6); assay: SSAT-mediated N-acetylation enzyme kinetics in plateable cryopreserved primary rat hepatocytes (LC/MS/MS, Lineweaver-Burk); conditions: for Vmax of N-acetylation by SSAT: confirmatory experiment, primary rat hepatocytes, 24-hour incubation, Lineweaver-Burk estimate
Procedure: as §1
Immediately before use, cryopreserved primary rat hepatocytes were thawed in a water bath at 37° C. and resuspended in pre-warmed InVitroGRO™ CP Rat Medium. […] Hepatocyte concentrations were adjusted by addition with InVitroGRO™ CP Rat Medium to achieve the target plating concentration of 0.70×10^6 cells/m L. Aliquots of hepatocytes were plated (0.5 mL/well) in 24-well CellAffix culture plates and the plates were placed in an incubator maintained at 37° C. with a highly humidified atmosphere of 95% air and 5% […] for 4 hours to allow hepatocyte attachment before dosing with the selective substrate solutions.
as §2
Four LC/MS/MS assays were employed to individually quantitate the four metabolites in the incubation samples.
Enzyme kinetics was evaluated based on the enzymatic conversion of the substrate at a range of testing concentrations into their N-acetylated metabolites over a 24-hour incubation reaction time course. Metabolite formation from different testing substrate concentrations after incubation was measured by LC/MS/MS and the resulting data constructed into Lineweaver-Burk plots of the double reciprocal of reaction velocity against substrate concentrations to estimate the Km and Vmax values of SSAT-mediated N-acetylation of each substrate tested.

[2] = biological target: SSAT in cytosolic liver fraction of transgenic mice (Mus musculus, UniProt P48026); conditions: read-out: Km of spermidine acetylation (literature reference); cited from earlier work
Chain of SSAT in cytosolic liver fraction of transgenic mice (P48026 whole entry): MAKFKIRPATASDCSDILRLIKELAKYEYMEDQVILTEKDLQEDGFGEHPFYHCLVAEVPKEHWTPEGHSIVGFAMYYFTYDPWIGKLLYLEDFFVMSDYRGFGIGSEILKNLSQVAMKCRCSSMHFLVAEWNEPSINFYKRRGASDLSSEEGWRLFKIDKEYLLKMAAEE

Chain of spermidine/spermine N1-acetyltransferase (SSAT) (Q6P9U6 1-171): as the sequence (P48026 whole entry) above, with I35V, Q42L counted along it

Compound	Cytotoxicity to rat hepatocytes (in words) (rat hepatocytes)	Substrate concentration resulting in extensive cytotoxicity (rat hepatocytes)	Substrate concentration that resulted in extensive cytotoxicity (rat hepatocytes)	Vmax of N-acetylation by SSAT [1] [pmol/min/million cells]	Km at 24 h ([1]; rat) [µM]	Km [2] [µM]
NC12CC3CC(CC(C3)C1)C2 [amantadine]	Significant cytotoxicity	approximately 1140 μM	approximately 1170 μM	0.00197	–	–
CC(N)C12CC3CC(CC(C3)C1)C2 (centres unmarked) [rimantadine]	Significant cytotoxicity	~220 µM	~280 µM	0.364	1840	–
NCCCCNCCCN [spermidine]	No cytotoxicity	–	–	7.21	–	267 ± 46
Cc1cccc(C)c1NC(=O)C(C)N (centres unmarked) [tocainide]	No cytotoxicity	–	–	0.617	–	–
